Measured values as given in patent US9079899B2, “Anti-staphylococcal celecoxib derivatives” (THE OHIO STATE UNIVERSITY, priority 2010, dated 2015).
Values after ≈ are worked out from the molar mass of the structure shown. “Also recorded” adds a separate entry of the source. Read-outs that look alike come from different tables or passages of the source.

Legend:
S. hominis (ATCC 27844) = experiment: MIC, broth microdilution; format: cell-based; conditions: Staphylococcus hominis, ATCC27844
MRSA (ATCC 49476) = experiment: MIC, broth microdilution; format: cell-based, methicillin-resistant Staphylococcus aureus; conditions: Staphylococcus aureus
[1] = tested on: S. saprophyticus (ATCC 15305); experiment: MIC, broth microdilution; format: cell-based; conditions: Staphylococcus saprophyticus, ATCC15305
MRSA (ATCC 33592) = experiment: MIC, broth microdilution; format: cell-based, methicillin-resistant Staphylococcus aureus; conditions: Staphylococcus aureus; read-out: MIC MRSA (ATCC 33592)
[2] = tested on: S. epidermidis (ATCC 12228); experiment: MIC, broth microdilution; format: cell-based; conditions: Staphylococcus epidermidis, ATCC12228
[3] = tested on: S. haemolyticus (ATCC 29970); experiment: MIC, broth microdilution; format: cell-based; conditions: Staphylococcus haemolyticus, ATCC29970
[4] = tested on: HT-29 human colon adenocarcinoma cells; experiment: Antiproliferative assay (MTT); format: cell-based; conditions: for IC50: Homo sapiens, HT-29, 24-h exposure, 10% FBS-supplemented RPMI 1640, MTT; for Selectivity ratio: IC50 (HT-29) / MIC against S. aureus
Procedure: As celecoxib has been reported to be cytotoxic to cancer cells, the growth inhibitory activities of celecoxib and selected derivatives were assessed in. HT-29 human colon adenocarcinoma cells after 24-h exposure in 10% FBS-supplemented RPMI 1640 medium.
Antiproliferative assay. The cytotoxicity of individual test agents in HT-29 human colon adenocarcinoma cells was evaluated by using the 3-(4,5-dimethylthiazol-2-yl)-2,5-diphenyltetrazolium (MTT) assay. Briefly, HT-29 cells were seeded into 96-well plates at 1×10^4 cells/well (with a minimum of 6 wells per test condition) in RPMI 1640 medium supplemented with 10% FBS and 10 μg/ml of gentamicin. After overnight incubation at 37° C. under 5% CO2, the medium from each well was removed and replenished with fresh aliquots of the same medium containing various concentrations of test agents dissolved in DMSO (final concentration, 0.1%). Control cells were treated with DMSO alone at a concentration equal to that in drug-treated cells. After 24 h of drug exposure, the medium was removed and replaced by 100 μl of 0.5 mg/ml MTT in 10% FBS-containing medium, and the cells were incubated in the CO2 incubator at 37° C. for 2 h. Subsequently, medium was removed from each well, and the reduced MTT dye was dissolved with 100 μl of DMSO per well. Absorbance at 570 nm was measured with a plate reader. The 50% inhibitory concentration (IC50) of each drug was determined from dose-response curves by using CalcuSyn software (Biosoft, Cambridge, United Kingdom).

MRSA (SCCmec VT) = experiment: MIC, broth microdilution; format: cell-based, methicillin-resistant Staphylococcus aureus
S. aureus (ATCC 29213) = experiment: MIC, broth microdilution; format: cell-based; conditions: Staphylococcus aureus
[5] = tested on: S. epidermidis (ATCC 35984); experiment: MIC, broth microdilution; format: cell-based; conditions: Staphylococcus epidermidis
S. aureus (ATCC 12598) = experiment: MIC, broth microdilution; format: cell-based; conditions: Staphylococcus aureus, ATCC12598
MRSA ATCC 33592 = experiment: Time-kill assay; format: cell-based, methicillin-resistant Staphylococcus aureus; conditions: for reduction in CFU: after 24-h exposure to 8 times the MIC, CAMHB
Procedure: Numbers of viable bacteria in the broth after each exposure period were enumerated by CFU assay, and the results expressed as CFU/ml. Points indicate means, and bars indicate SD (n=3). The dashed line represents 99.9% cell killing. Ctl, control.
Otherwise, it is considered bacteriostatic. Pankey, G. A.; Sabath, L. D. Clin. Infect. Dis., 38, 864-870 (2004). To category these novel agents, represented by compounds 9, 36, and 46, in this regard, their time-killing kinetics were assessed in MRSA ATCC 33592 over a 24-h treatment period. Overnight-grown bacteria were inoculated in cation-adjusted Muller Hinton broth (CAMHB) at a concentration of 5×10^5 CFU/ml followed by exposure to individual compounds at 2- to 8-fold their respective MIC values. […] Accordingly, compounds 36 and 46 were classified as bactericidal. As the killing was time-dependent, the antibacterial effect of these agents was not caused by the disruption of membrane integrity.
Time-kill assay. To analyze the kinetics of bacterial cell killing, MRSA ATCC 33592 cells at a density of 5×10^5 CFU/ml were treated with test agents at 2-, 4-, and 8-fold MICs in triplicate in 24-well plates. Bacterial survival in medium containing DMSO at a concentration equal to that used for drug-treated bacteria served as control. At different times after the start of drug exposure, a 100 μl aliquot of the bacterial suspension was taken from each well and serially diluted with PBS. The diluted samples were spread onto LB agar plates followed by incubation at 37° C. for 16 h. The bacterial colonies on each plate were enumerated, and the number of viable bacteria in each well was expressed as CFU per milliliter.

three strains of MRSA = experiment: MIC, text statements on the three strains of MRSA together; format: cell-based, methicillin-resistant Staphylococcus aureus; conditions: Staphylococcus aureus, read-out: MIC against MRSA
Procedure: Antibacterial assays. The MIC of each agent was determined following the guidelines for the broth microdilution method recommended by the Clinical and Laboratory Standards Institute. Wikler, M. A. Performance Standards for Antimicrobial Susceptibility Testing; Eighteenth Informational Supplement Clinical and Laboratory Standards Institute: 2008. Briefly, bacteria grown overnight on Luria Bertani (LB) agar plates were suspended in phosphate-buffered saline (PBS) to an O.D. of 1.0 at 600 nm, which was equivalent to 2×10^9 CFU/ml, and then diluted in CAMHB to a final concentration of 5×10^5 CFU/ml. […] The MIC of each agent was defined as the lowest concentration at which no growth of bacteria was observed.

MRSA 33592 = experiment: Survival of MRSA-infected mice; format: in vivo, C57BL/6 mice; conditions: once, 1 h postinfection, 5×10^7 CFU i.p.
Procedure: (A) Effect of intraperitoneal administration of Cpd-36 and Cpd-46 on survival of methicillin-resistant Staphylococcus aureus-infected mice. C57BL/6 mice were inoculated intraperitoneally with 5×10^7 CFU of MRSA 33592. At 1 h postinfection, mice were treated intraperitoneally once with vehicle, Cpd-36 or Cpd-46 at 30 mg/kg (B) Effect of oral administration of Cpd-46 on survival of MRSA 33592-infected mice. One hour after intraperitoneal inoculation with 5×10^7 CFU of MRSA 33592, C57BL/6 mice were treated orally once with Cpd-46 at 100 mg/kg or vehicle. Survival data are presented as Kaplan-Meier survival curves for each treatment group (n=5). The difference in the mean survival times of the groups was statistically significant at P values of 0.05.

S. aureus = experiment: CFU of S. aureus after exposure to celecoxib at the MIC; format: cell-based; conditions: at the MIC of 32 μg/ml, after 24 h
Text: The inventors examined the suppressive effect of celecoxib on the growth of S. aureus (ATCC 29213), S. epidermidis (ATCC 35984), and two different strains of MRSA (ATCC 33592 and SCCmec VT), as shown in Table IX.

[6] = tested on: S. lugdunesis (NTUH isolate); experiment: MIC, broth microdilution; format: cell-based; conditions: read-out: MIC S. lugdunesis (NTUH isolate)
[7] = Staphylococcus aureus, MRSA, read-out: MIC MRSA (SCCmec VT)
[8] = ATCC29213, 24 h, CAMHB, 24 h, 37° C., read-out: MIC S. aureus (ATCC 29213)
[9] = ATCC35984, 24 h, CAMHB, 24 h, 37° C., read-out: MIC S. epidermidis (ATCC 35984)
[10] = Table XIII, S. aureus (SSCmecVT)

NS(=O)(=O)Nc1ccc(-n2nc(C(F)(F)F)cc2-c2ccc3cc4ccccc4cc3c2)cc1 [Compound 47, N-[4-(5-Anthracen-2-yl-3-trifluoromethyl-pyrazol-1-yl)-phenyl]-aminosulfonamide]
MIC (S. hominis (ATCC 27844)): 2 µg/mL (≈ 4.15 µM) | MIC (MRSA (ATCC 49476)): 2 µg/mL (≈ 4.15 µM) | MIC [1]: 8 µg/mL (≈ 16.6 µM) | MIC (MRSA (ATCC 33592)): 2 µg/mL (≈ 4.15 µM) | MIC [2]: 2 µg/mL (≈ 4.15 µM) | MIC [3]: 16 µg/mL (≈ 33.2 µM) | IC50 [4]: 11 µg/mL (≈ 22.8 µM) | MIC (MRSA (SCCmec VT); [7]): 2 µg/mL (≈ 4.15 µM)

Cc1ccc(-c2cc(C(F)(F)F)nn2-c2ccc(NS(N)(=O)=O)cc2)cc1 [Compound 41, N-[4-(5-p-Tolyl-3-trifluoromethyl-pyrazol-1-yl)-phenyl]-aminosulfonamide]
MIC (S. aureus (ATCC 29213); [8]): 4 µg/mL (≈ 10.1 µM) | MIC (MRSA (ATCC 49476)): 4 µg/mL (≈ 10.1 µM) | MIC (MRSA (ATCC 33592)): 4 µg/mL (≈ 10.1 µM) | MIC [5, 9]: 4 µg/mL (≈ 10.1 µM) | MIC [2]: 4 µg/mL (≈ 10.1 µM) | IC50 [4]: 28 µg/mL (≈ 70.6 µM) | MIC (MRSA (SCCmec VT); [7]): 4 µg/mL (≈ 10.1 µM) | MIC (S. aureus (ATCC 12598)): 4 µg/mL (≈ 10.1 µM)

NC(=O)c1ccc(-n2nc(C(F)(F)F)cc2-c2c3ccccc3cc3ccccc23)cc1 [Compound 9, 4-(5-Anthracen-9-yl-3-trifluoromethyl-pyrazol-1-yl)-benzamide]
MIC (S. aureus (ATCC 29213); [8]): ≤ 2 µg/mL | MIC (MRSA (ATCC 33592)): 2 µg/mL (≈ 4.64 µM) | MIC [5, 9]: ≤ 2 µg/mL | reduction in CFU (MRSA ATCC 33592): 99.14% | dose-dependent effect on cell killing (MRSA ATCC 33592; range of 2×-8×MIC): did not show a dose-dependent effect | MIC (three strains of MRSA): 0.5 to 2 µg/mL (≈ 1.16 to 4.64 µM) | IC50 [4]: 12 µg/mL (≈ 27.8 µM)

NS(=O)(=O)Nc1ccc(-n2nc(C(F)(F)F)cc2-c2c3ccccc3cc3ccccc23)cc1 [Compound 46, N-[4-(5-Anthracen-9-yl-3-trifluoromethyl-pyrazol-1-yl)-phenyl]-aminosulfonamide]
survival of MRSA-infected mice (MRSA 33592; intraperitoneal, 30 mg/kg): improve the survival | survival of MRSA-infected mice (MRSA 33592; oral, 100 mg/kg): improve the survival | reduction in CFU (MRSA ATCC 33592): 99.99% | classification bactericidal / bacteriostatic (MRSA ATCC 33592; bactericidal = 99.9% reduction in inoculum within 24 h): bactericidal; also recorded: bacteriostatic | IC50 [4]: 20 µg/mL (≈ 41.5 µM) | Selectivity ratio [4]: 40 | MIC (MRSA (SCCmec VT); [10]): 0.5 µg/mL (≈ 1.04 µM)

Cc1ccc(-c2cc(C(F)(F)F)nn2-c2ccc(S(N)(=O)=O)cc2)cc1 [Celecoxib, celecoxib]
MIC (S. aureus (ATCC 29213); ATCC29213, Table IX, S. aureus (ATCC 29213), read-out: MIC): 32 µg/mL (≈ 83.9 µM) | MIC ([5]; ATCC35984, Table IX, S. epidermidis (ATCC 35984), read-out: MIC): 16 µg/mL (≈ 42 µM) | IC50 [4]: 18 µg/mL (≈ 47.2 µM) | decrease in CFU relative to control (S. aureus): 6 log

NS(=O)(=O)Nc1ccc(-n2nc(C(F)(F)F)cc2-c2ccc3c(ccc4ccccc43)c2)cc1 [Compound 36, N-[4-(5-Phenanthren-2-yl-3-trifluoromethyl-pyrazol-1-yl)-phenyl]-aminosulfonamide]
MIC (S. aureus (ATCC 29213); [8]): ≤ 2 µg/mL | MIC [6]: 2 µg/mL (≈ 4.15 µM) | MIC [5, 9]: ≤ 2 µg/mL | reduction in CFU (MRSA ATCC 33592): 99.91% | IC50 [4]: 12 µg/mL (≈ 24.9 µM) | Selectivity ratio [4]: 12 | MIC (MRSA (SCCmec VT); [10]): 1 µg/mL (≈ 2.07 µM)
